How the values were obtained:
E. cloacae P99 [1] = assay: MIC of compound alone, broth microdilution; assay type: cell-based; conditions: strain P99; compound alone
Procedure, shortened: (§1)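 Visual end point: lowest concentration that blocked growth. Conditions: cation-adjusted Mueller-Hinton broth, 5×10^5 cfu/mL final inoculum of log-phase bacteria, 16-20 h, 35° C, ambient atmosphere.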

E. coli 190317 [2] = assay: MIC of compound alone, broth microdilution; assay type: cell-based; conditions: strain 190317; compound alone
Procedure, shortened: as §1

K. pneumoniae 6299 [3] = assay: MIC of compound alone, broth microdilution; assay type: cell-based; conditions: strain 6299; compound alone
Procedure, shortened: as §1

K. pneumoniae BAA-1898 [4] = assay: MIC of compound alone, broth microdilution; assay type: cell-based; conditions: strain BAA-1898; compound alone
Procedure, shortened: as §1

P. aeruginosa CIP107051 [5] = assay: MIC of compound alone, broth microdilution; assay type: cell-based; conditions: strain CIP107051; compound alone
Procedure, shortened: as §1

E. cloacae P99 [6] = assay: MIC of ceftazidime (CAZ) at fixed concentration of compound (synergy), broth microdilution; assay type: cell-based; conditions: strain P99; MIC of CAZ, compound fixed at 4 μg/mL
Protocol: (§2) Log phase bacterial suspensions were adjusted to a final density of 5×10^5 cfu/mL in cation-adjusted Mueller-Hinton broth (Becton-Dickinson) and added to each well (98 μL). Microplates were incubated for 16-20 h at 35° C. in ambient air. The MIC of the compounds was defined as the lowest concentration of said compounds that prevented bacterial growth as read by visual inspection.

E. coli 190317 [7] = assay: as above; assay type: cell-based; conditions: strain 190317; MIC of CAZ, compound fixed at 4 μg/mL
Protocol: as §2

K. pneumoniae 6299 [8] = assay: as above; assay type: cell-based; conditions: strain 6299; MIC of CAZ, compound fixed at 4 μg/mL
Protocol: as §2

K. pneumoniae BAA-1898 [9] = assay: as above; assay type: cell-based; conditions: strain BAA-1898; MIC of CAZ, compound fixed at 4 μg/mL
Protocol: as §2

P. aeruginosa CIP107051 [10] = assay: as above; assay type: cell-based; conditions: strain CIP107051; MIC of CAZ, compound fixed at 4 μg/mL
Protocol: as §2

AmpC (P99) = AmpC (P99) (Enterobacter cloacae, UniProt P05364); conditions: read-out: IC50 β-lactamase AmpC (P99); class (C); nitrocefin 200 μM, 30-min pre-incubation, enzyme 0.2 nM
CMY-37 = CMY-37 (Citrobacter freundii, UniProt P05193); conditions: read-out: IC50 β-lactamase CMY-37; class (C); nitrocefin 200 μM, 30-min pre-incubation, enzyme 0.2 nM
AmpC (PAE) = AmpC (PAE) (Pseudomonas aeruginosa, UniProt P24735); conditions: read-out: IC50 β-lactamase AmpC (PAE); class (C); nitrocefin 200 μM, 30-min pre-incubation, enzyme 0.4 nM
OXA-15 = OXA-15 (Pseudomonas aeruginosa, UniProt Q51574); conditions: read-out: IC50 β-lactamase OXA-15; class (D); nitrocefin 200 μM, 30-min pre-incubation, enzyme 0.4 nM
TEM-1 = TEM-1 (Escherichia coli, UniProt P62593); conditions: read-out: IC50 β-lactamase TEM-1; class (A); nitrocefin 200 μM, 30-min pre-incubation, enzyme 0.1 nM
SHV-1 = SHV-1 (Klebsiella pneumoniae, UniProt P0AD64); conditions: read-out: IC50 β-lactamase SHV-1; class (A); nitrocefin 200 μM, 30-min pre-incubation, enzyme 0.075 nM
CTX-M-15 = CTX-M-15 (Escherichia coli, UniProt Q9EXV5); conditions: read-out: IC50 β-lactamase CTX-M-15; class (A); nitrocefin 200 μM, 30-min pre-incubation, enzyme 0.4 nM
KPC-2 = KPC-2 (Klebsiella pneumoniae, UniProt Q9F663); conditions: read-out: IC50 β-lactamase KPC-2; class (A); nitrocefin 200 μM, 30-min pre-incubation, enzyme 1 nM
OXA-1 = OXA-1 (Escherichia coli, UniProt P13661); conditions: read-out: IC50 β-lactamase OXA-1; class (D); nitrocefin 200 μM, 30-min pre-incubation, enzyme 0.2 nM
OXA-11 = OXA-11 (Pseudomonas aeruginosa, UniProt Q06778); conditions: read-out: IC50 β-lactamase OXA-11; class (D); nitrocefin 200 μM, 30-min pre-incubation, enzyme 1.2 nM
OXA-48 = OXA-48 (Klebsiella pneumoniae, UniProt Q6XEC0); conditions: read-out: IC50 β-lactamase OXA-48; class (D); nitrocefin 200 μM, 30-min pre-incubation, enzyme 0.3 nM

SMILES	MIC compounds of the invention alone (E. cloacae P99 [1]) [µg/mL]	MIC compounds of the invention alone (E. coli 190317 [2]) [µg/mL]	MIC compounds of the invention alone (K. pneumoniae 6299 [3]) [µg/mL]	MIC compounds of the invention alone (K. pneumoniae BAA-1898 [4]) [µg/mL]	MIC compounds of the invention alone (P. aeruginosa CIP107051 [5]) [µg/mL]	MIC combination of CAZ and compounds of the invention at 4 μg/mL (E. cloacae P99 [6]) [µg/mL]	MIC combination of CAZ and compounds of the invention at 4 μg/mL (E. coli 190317 [7]) [µg/mL]	MIC combination of CAZ and compounds of the invention at 4 μg/mL (K. pneumoniae 6299 [8]) [µg/mL]	MIC combination of CAZ and compounds of the invention at 4 μg/mL (K. pneumoniae BAA-1898 [9]) [µg/mL]	MIC combination of CAZ and compounds of the invention at 4 μg/mL (P. aeruginosa CIP107051 [10]) [µg/mL]	IC50 (AmpC (P99)) [nM]	IC50 (CMY-37) [nM]	IC50 (AmpC (PAE)) [nM]	IC50 (OXA-15) [nM]	IC50 (TEM-1) [nM]	IC50 (SHV-1) [nM]	IC50 (CTX-M-15) [nM]	IC50 (KPC-2) [nM]	IC50 (OXA-1) [nM]	IC50 (OXA-11) [nM]	other results
NC(=O)c1cc(F)n(C2=CC3CN(C2)C(=O)N3OS(=O)(=O)[O-])n1.[Na+] (stereo not drawn) [Example 30, sodium (7-oxo-3-(3-carboxamide-5-fluoro-pyrazol-1-yl)-1,6-diazabicyclo[3.2.1]oct-3-en-6-yl) sulfate]	>32	32	>32	>32	>32	8	0.25	1	2	16	28	99	370	170	0.33	2.7	1	5.3	350	29	IC50 (OXA-48): 36 nM
CC(=O)Nc1ccn(C2=CC3CN(C2)C(=O)N3OS(=O)(=O)O)n1.CCN(CC)CC (stereo not drawn) [Example 33, triethylammonium {[3-(N-acetamido)pyrazol-1-yl]-7-oxo-1,6-diazabicyclo[3.2.1]oct-3-en-6-yl}sulfate]	16	8	32	32	>32	1	≤0.25	0.25	16	8	7.1	3.2	32	44	0.67	1.7	0.72	11	68	8.4	IC50 (OXA-48): 3.1 nM
O=C(O)C(F)(F)F.O=C1N2CC(n3ccc(CNc4nccs4)n3)=CC(C2)N1OS(=O)(=O)[O-].[Na+] (stereo not drawn) [Example 35, sodium and 2,2,2-trifluoroacetate [7-oxo-3-[3-(methylene-2-ammoniumthiazole)pyrazol-1-yl]-1,6-diazabicyclo[3.2.1]oct-3-en-6-yl]sulfate]	>32	16	>32	>32	>32	32	0.5	32	32	16	12	8.1	52	79	0.73	3.2	0.5	13	130	54	IC50 (OXA-48): 6 nM

Source: patent US10722520B2, “Heterocyclic compounds and their use in preventing or treating bacterial infections” (MUTABILIS, priority 2016, dated 2020)
